Measurements reported in US8741932B2, “Imidazopyridine derivatives” (Piramal Enterprises Limited, priority 2009, dated 2014).

Experiments:
Type in all cases: cell-based
CAPAN1 = assay: Cytotoxicity assay (propidium iodide), CAPAN1; conditions: Homo sapiens, CAPAN-1; CAPAN1 (C5b, pancreatic); 48 hours
Protocol: (§1) Cells from cell lines as mentioned in the table given below were seeded at a density of 3000 cells/well in a white opaque 96-well plate. Following incubation at 37° C./5% CO2 for a period of 18-24 hours, the cells were treated with various concentrations (stock solution was prepared in DMSO and subsequent dilutions were made in media as per ATCC guidelines) of the representative compounds of present invention (refer table 3) for a period of 48 hours. At the end of treatment, the spent culture medium was discarded, the cells were washed with 1×PBS and 200 μl of 7 μg/ml propidium iodide was added to each well. The plates were frozen at −70° C. for at least 24 hours. For analysis, the plates were brought to RT, allowed to thaw and were read in PolarStar fluorimeter with the fluorescence setting. The percentage of viable cells in the non treated set of wells was considered to be 100 and the percentage viability following treatment was calculated accordingly. IC50 values were calculated from graphs plotted using these percentages.

TNF-α = assay: Human monocyte assay, LPS-stimulated TNF-α; conditions: human monocytes, 1 μg/ml LPS, 5 hours
Protocol: The assay was designed as in the reference, Physiol.
Peripheral blood mononuclear cells (hPBMC) were harvested from human blood and suspended in RPMI 1640 culture medium containing 10% FCS, 100 U/mL penicillin and […] streptomycin (assay medium). Monocytes in the hPBMCs were counted using a Coulter Counter following which the cells were resuspended at 2×10^5 monocytes/mL. A cell suspension containing 2×10^4 monocytes was aliquoted per well of a 96-well plate. Subsequently, the hPBMCs were incubated for 4-5 hours at 37° C., 5% CO2 (During the incubation, the monocytes adhered to the bottom of 96-well plastic culture plate). Following the incubation, the non-adherent lymphocytes were washed with assay medium and the adherent monocytes re-fed with assay medium. After a 48-hour incubation period (37° C., 5% CO2), monocytes were pretreated with various concentrations of representative compounds of present invention (refer to table 6 and 7) (prepared in DMSO) or vehicle (0.5% DMSO) for 30 minutes and stimulated with 1 μg/ml LPS (Escherchia coli 0111:B4, Sigma Chemical Co., St. Louis, Mo.). The incubation was continued for 5 hours at 37° C., 5% CO2. Supernatants were harvested, assayed for IL-6 and TNF-α by ELISA as described by the manufacturer (BD Biosciences, USA). Dexamethasone (10 μM) was used as standard for this assay. […] Biological results for both IL-6 and TNFα are indicated in Table 6 and Table 7 respectively.

IL-6 = assay: Synovial tissue assay, IL-6; conditions: Homo sapiens; synovial tissue cells from rheumatoid arthritis patients, 16 hours
Protocol: The assay was designed as in the reference, Lancet, 2(8657), 244-7, Jul.
Stock Solution: Compounds of the present invention were dissolved in DMSO to obtain a stock solution of 20 mM.
Synovial tissue was obtained from rheumatoid arthritis patients undergoing knee replacement surgery. The tissue was minced into small pieces and digested in RPMI medium containing 100 U/ml penicillin-G, 100 μg/ml streptomycin, 50 ng/ml amphotericin B (GIBCO; USA), 1.33 mg/ml collagenase Type I (Worthington Biochemical Corporation, New Jersey), 0.5 μg/ml DNAse Type I (Sigma Aldrich; St. Louis, Mo.) and 8.33 U/ml heparin (Biological E. Limited, India) for 3 hours at 37° C., 5% CO2. The digested tissue was filtered through a membrane (mesh size 70 micron; Sigma Aldrich). Subsequently, the cells were washed 3 times and resuspended in complete medium (RPMI supplemented with 5% FBS and 5% human serum-AB+) at a concentration of 1×10^6 cells/ml. All cell washes in this assay were performed using Rosewall Park Memorial Institute (RPMI)-1640 medium (JRH; Australia). For the experiment, 100 μl of cell suspension was added to the wells of a 96-well culture plate. Following cell plating, 100 μl of the culture medium and 1 μl of various concentrations (0.01, 0.03, 0.1, 0.3, 1, 3, 10, 30 and 100 μM) of the compounds of present invention dissolved in DMSO were added to the cells. The final concentration of DMSO was adjusted to 0.5%. For experimental purposes, 1 μl of […] concentrated solution of the compounds of present invention were dissolved in 200 μl cell suspension to achieve a final concentration of 0.01, 0.03, 0.1, 0.3, 1, 3, 10, 30 and 100 μM. The vehicle (0.5% DMSO) was used as control. 10 μM dexamethasone (Sigma Aldrich) or 1 μM 7-hydroxyfluorinide (7HF) were used as standards for the experiments. The plates were incubated for 16 hours at 37° C., 5% CO2. Subsequently, the supernatants were harvested and stored at −70° C. The amounts of TNF-α, IL-6 and interleukin-8 (IL-8) in the supernatants were assayed using OptiEIA ELISA sets, (BD BioSciences Pharmingen). The protocol followed was as per manufacturers instructions. […] The cytotoxicity of test compounds in synovial cells was assessed by MTS assay. Absorbance was measured at 490 nm. Percent cytotoxicity was calculated by the equation: % Cytotoxicity=(A−B)/A×100 where, A is the absorbance of cells treated with DMSO alone and B is the absorbance of cells treated with the test article.

PANC 1 = assay: Cytotoxicity assay (propidium iodide), PANC 1; conditions: Homo sapiens; PANC 1 (C5a, pancreatic); 48 hours
Protocol: as §1

mTOR = biological target: T1, mTOR (Homo sapiens, UniProt P42345); assay: mTOR activity assay (cell ELISA, Phospho-AKT Ser 473, A2780 cells); conditions: for inhibition at 1 µM: read-out: % Inhibition of mTOR activity at 1 μM
T1 construct: endogenous in cells; host or cells: A2780 ovarian cell line (ATCC)
Method in brief: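 A2780 cells adhered 18-24 h, serum-starved 24 h, then stimulated with 20% FCS for 30 min alongside compound-treated sets. Fixed cells probed for phospho-AKT Ser473 by HRP/OPD cell ELISA, absorbance 490 nm. Values given as percentage or fold decrease in AKT phosphorylation relative to stimulated cells.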

| Structure (SMILES) | IC50 (CAPAN1) [nM] | IC50 (TNF-α) [nM] | IC50 (IL-6) [µM] | IC50 (PANC 1) [nM] | IC50 (mTOR) [nM] | inhibition at 1 µM (mTOR) [%] |
| --- | --- | --- | --- | --- | --- | --- |
| CN(N=Cc1cnc2ccc(-c3cccnc3)cn12)S(=O)(=O)c1cccc(F)c1 [Example 5, 3-Fluoro-N-methyl-N′-((6-(pyridine-3-yl)imidazo[1,2-a]pyridine-3-yl)methylene)benzenesulfonohydrazide] | 10 to 5000 | 1000 to 15000 | 0.01 to 0.3 | 10 to 5000 | 1000 to 5000 | – |
| CN(N=Cc1cnc2ccc(-c3cccnc3)cn12)S(=O)(=O)c1ccc(F)cc1 [Example 6, 4-Fluoro-N-methyl-N′-((6-(pyridine-3-yl)imidazo[1,2-a]pyridine-3-yl)methylene)benzenesulfonohydrazide] | 10 to 5000 | 1 to 1000 | 0.3 to 3 | 10 to 5000 | – | 30 to 50 |
| CN(N=Cc1cnc2ccc(-c3cccnc3)cn12)S(=O)(=O)c1cc(F)cc(F)c1 [Example 16, 3,5-Difluoro-N-methyl-N′-((6-(pyridine-3-yl)imidazo[1,2-a]pyridine-3-yl)methylene) benzenesulfonohydrazide] | – | 1 to 1000 | 0.01 to 0.3 | – | – | 30 to 50 |
| Cc1ccc(F)cc1S(=O)(=O)N(C)N=Cc1cnc2ccc(-c3cccnc3)cn12 [Example 21, 5-Fluoro-N, 2-dimethyl-N′-((6-(pyridine-3-yl)imidazo[1,2-a]pyridine-3-yl)methylene) benzenesulfonohydrazide] | 10 to 5000 | 1 to 1000 | 0.01 to 0.3 | 10 to 5000 | 1000 to 5000 | – |
| Cc1ccc([N+](=O)[O-])cc1S(=O)(=O)N(C)N=Cc1cnc2ccc(-c3cccnc3)cn12 [Example 25] | 10 to 5000 | – | 0.01 to 0.3 | 10 to 5000 | 1000 to 5000 | – |
